The values below come from PMC6973051, “Proline‐Rich Peptides with Improved Antimicrobial Activity against E. coli, K. pneumoniae, and A. baumannii” (Chemmedchem, 2019).

Ends that are not written are not given here.

The test system of one experiment is E. coli BW25113. The format is cell-based, Escherichia coli. Particulars: BW25113, 18 h. The text has this: The following bacterial strains were used: Escherichia coli BW25113, E. coli BW25113ΔsbmA (JW0368‐1, KEIO collection21); Acinetobacter baumannii ATCC 19606, Klebsiella pneumoniae ATCC 700603, Pseudomonas aeruginosa ATCC 27853 and Staphylococcus aureus ATCC 25923. The pathogenic E. coli EURL‐VTEC A07, E. coli EURL‐VTEC C07, E. coli SSI‐NN14, E. coli EA22, E. coli SSI‐OO15 and E. coli C679‐12 strains were generously provided by the European Union Reference Laboratory for E. coli, Department of Food Safety, Nutrition and Veterinary Public Health, Istituto Superiore di Sanità, Rome, Italy. All the strains were grown overnight in Müller‐Hinton broth (MHB, Difco) at 37 °C, with shaking (140 rpm). The day after, the overnight bacterial cultures were diluted approx. 1 : 40 in fresh MHB and incubated at 37 °C with shaking (140 rpm) until an OD600nm of ≈0.3 was reached. E. coli BW25113ΔsbmA was grown in the presence of 50 μg mL^−1 kanamycin.
Peptides were diluted in 100 μL of MHB to the concentration of 128 μM, dispensed in the first wells of a 96‐wells microtiter plate (round‐bottom) and serially two‐fold diluted with MHB into successive wells in a final volume of 50 μl. Subsequently, 50 μL of a bacterial suspension (5×10^5 CFU mL^−1) were added to each well, halving the final concentration of bacteria and peptides. Bacteria were added to MHB only as bacterial growth‐control, whereas 100 μl of MHB were used to check the medium sterility. The plate was incubated overnight at 37 °C (≈18 hours) and sealed with parafilm to minimise evaporation. The MIC was calculated as the first clear well without bacterial growth. If barely detectable growth was present, the OD600nm of the plate was measured by a multiplate reader Tecan (software Sunrise). The MIC was then calculated as the well whose OD620 was≤1 % of that of the untreated growth control.
The substance “RFRPPIRRPPARPPFYPG-NH2 (C-terminus assumed) [I11A]” gave an MIC of over 64 µM. Still for that read-out and setting: the figure for RFRPPIRRPPIRPWFYPG-NH2 [P14W] is 16 µM; for RFRPPIPRPPIRPPFYPG-NH2 [R7P] it is over 64 µM; for RFRPPIRGPPIRPPFYPG-NH2 [R8G] it is over 64 µM. Same read-out and setting: the figure for “RFRPPIRRPPSRPPFYPG-NH2 (C-terminus assumed) [I11S]” is over 64 µM. The substance RFRPPIRRPPIREPFYPG-NH2 [P13E] yielded an MIC of over 64 µM. The substance RFRPPIRRPPIRRPFYPG-NH2 [P13R] had a minimal inhibitory concentration (MIC) of 64 µM. In turn, “RFRPPIRRFPIRPPFYPG-NH2 (C-terminus assumed) [P9F]” had an MIC of 16 µM.

The substance RFRPPIRRPPIRSPFYPG-NH2 [P13S] had an MIC of 64 µM.

“RFRPPFRRPPIRPPFYPG-NH2 (C-terminus assumed) [I6F]” came in with an MIC of 16 µM.

Turning to “RFRPPIRRAPIRPPFYPG-NH2 (C-terminus assumed) [P9A]”, the MIC is over 64 µM. Substance RFRPPIRRPFIRPPFYPG-NH2 [P10F] displayed an MIC of 64 µM. As to “RFRPPIRRSPIRPPFYPG-NH2 (C-terminus assumed) [P9S]”, the MIC was found to be 64 µM. “RFRPPIRRWPIRPPFYPG-NH2 (C-terminus assumed) [P9W]” registered an MIC of 16 µM. Regarding “RFRPPIRRPPIRPPFYPG-NH2 [wt (SPOT form), reference compound]”, the minimum inhibitory concentration (MIC) is 32 µM.

In turn, RFRPPIRRPWIRPPFYPG-NH2 [P10W] returned an MIC of 32 µM. As for RFRPPIERPPIRPPFYPG-NH2 [R7E], the MIC was over 64 µM.

Consider RFRPPIRAPPIRPPFYPG-NH2 [R8A], for which the minimal inhibitory concentration (MIC) was over 64 µM. In turn, RFRPPIRRPPIRPPFYGG-NH2 [P17G] returned an MIC of 16 µM.

RFRPPISRPPIRPPFYPG-NH2 [R7S]: the MIC was over 64 µM. As to RFRPPIRRPPIRPPFYAG-NH2 [P17A], the MIC came out at 16 µM. For the substance “RFRSPIRRPPIRPPFYPG-NH2 (C-terminus assumed) [P4S]”, the MIC was 16 µM. Same read-out and setting: the figure for RFEPPIRRPPIRPPFYPG-NH2 [R3E] is over 64 µM; for RFRPPIRRPGIRPPFYPG-NH2 [P10G] it is over 64 µM; for “RFRPPRRRPPIRPPFYPG-NH2 (C-terminus assumed) [I6R]” it is 16 µM. As for RFRPPIRFPPIRPPFYPG-NH2 [R8F], the MIC is over 64 µM. Still for that read-out and setting: the figure for “RFREPIRRPPIRPPFYPG-NH2 (C-terminus assumed) [P4E]” is 64 µM.

As to RFRPPIRRPPIRPPFGPG-NH2 [Y16G], the MIC is over 64 µM. In the case of AFRPPIRRPPIRPPFYPG-NH2 [R1A], the MIC is 48 µM. “RPRPPIRRPPIRPPFYPG-NH2 (C-terminus assumed) [F2P]” returned an MIC of 64 µM.

In turn, RFAPPIRRPPIRPPFYPG-NH2 [R3A] registered an MIC of 64 µM. On to PFRPPIRRPPIRPPFYPG-NH2 [R1P], for which the MIC was 64 µM.

RFRPPIRRPPIRPPFYFG-NH2 [P17F]: the MIC is 16 µM. Regarding “RFRPPIRRPPIRPPRYPG-NH2 (C-terminus assumed) [F15R]”, the MIC was found to be 32 µM. With “RFRPPIRRPPGRPPFYPG-NH2 (C-terminus assumed) [I11G]”, the MIC was over 64 µM.

“RFRPPPRRPPIRPPFYPG-NH2 (C-terminus assumed) [I6P]” registered an MIC of over 64 µM.

Consider “RFRPPIRRPPIRPPEYPG-NH2 (C-terminus assumed) [F15E]”, for which the MIC is over 64 µM. Same read-out and setting: the figure for RFRPPIRRPPIWPPFYPG-NH2 [R12W] is over 64 µM; for “RFRWPIRRPPIRPPFYRG-NH2 [272 (SPOT form)]” it is 4 µM. The substance “RFRGPIRRPPIRPPFYPG-NH2 (C-terminus assumed) [P4G]” had an MIC of 8 µM. Substance “RFRPPIRRPPWRPPFYPG-NH2 (C-terminus assumed) [I11W]” registered an MIC of 32 µM. The same measure, in the same setting: the figure for RFRPPIRRPPIRPPFYSG-NH2 [P17S] is 16 µM. Same read-out and setting: the figure for RFRPPIRRPPIAPPFYPG-NH2 [R12A] is over 64 µM; for “RFRPPIRRPPIRPPAYPG-NH2 (C-terminus assumed) [F15A]” it is 64 µM; for “RFRPPIRRRPIRPPFYPG-NH2 (C-terminus assumed) [P9R]” it is 8 µM.

As for “RFRPSIRRPPIRPPFYPG-NH2 (C-terminus assumed) [P5S]”, the MIC worked out at 64 µM. For RFRPPIWRPPIRPPFYPG-NH2 [R7W], the MIC was 64 µM.

For the substance “RFRPPARRPPIRPPFYPG-NH2 (C-terminus assumed) [I6A]”, the MIC stood at 64 µM. In the case of “RERPPIRRPPIRPPFYPG-NH2 (C-terminus assumed) [F2E]”, the MIC was over 64 µM. On the same count and under the same terms, the figure for “RFRPPIRREPIRPPFYPG-NH2 (C-terminus assumed) [P9E]” is over 64 µM; for “RFRPPERRPPIRPPFYPG-NH2 (C-terminus assumed) [I6E]” it is over 64 µM; for RFRPPIRRPPIRPPFYEG-NH2 [P17E] it is over 64 µM. The substance RFRPPIRRPPIFPPFYPG-NH2 [R12F] returned an MIC of over 64 µM.

As to “RFRPWIRRPPIRPPFYPG-NH2 (C-terminus assumed) [P5W]”, the MIC amounted to 16 µM. On the same count and under the same terms, the figure for RFRPPIRRPPIRPAFYPG-NH2 [P14A] is over 64 µM. Regarding “RFRPPIRRGPIRPPFYPG-NH2 (C-terminus assumed) [P9G]”, the MIC was over 64 µM. For “RFRPPIRRPEIRPPFYPG-NH2 (C-terminus assumed) [P10E]”, the minimal inhibitory concentration (MIC) is over 64 µM. On the same count and under the same terms, the figure for RFRPPIRRPRIRPPFYPG-NH2 [P10R] is over 64 µM.

As for RFRPPIARPPIRPPFYPG-NH2 [R7A], the minimal inhibitory concentration (MIC) was over 64 µM. Regarding RFRPPIRRPPIRPPFEPG-NH2 [Y16E], the MIC is over 64 µM. In the case of EFRPPIRRPPIRPPFYPG-NH2 [R1E], the MIC was over 64 µM. RFRPPIGRPPIRPPFYPG-NH2 [R7G] yielded a minimum inhibitory concentration (MIC) of over 64 µM. As to “RWRRPIRRRPIRPPFYWG-NH2 [281 (SPOT form)]”, the MIC came out at 4 µM.

Substance “RFRPPSRRPPIRPPFYPG-NH2 (C-terminus assumed) [I6S]” came in with an MIC of 64 µM.

In turn, “RFRPPIRRPPRRPPFYPG-NH2 (C-terminus assumed) [I11R]” came in with an MIC of over 64 µM.

Substance “RFRPPIRRPPIRPPPYPG-NH2 (C-terminus assumed) [F15P]” came in with an MIC of over 64 µM. Regarding “RFRPFIRRPPIRPPFYPG-NH2 (C-terminus assumed) [P5F]”, the minimal inhibitory concentration (MIC) amounted to 32 µM. For RFFPPIRRPPIRPPFYPG-NH2 [R3F], the minimal inhibitory concentration (MIC) worked out at 64 µM. Regarding RFRPPIRSPPIRPPFYPG-NH2 [R8S], the MIC was over 64 µM.

Regarding RFRPPIRRPPIRPPFSPG-NH2 [Y16S], the MIC was over 64 µM.

“RWRWPIRRPPIRPPFYRG-NH2 [278 (SPOT form)]” came in with an MIC of 4 µM.

As to “RRRPPIRRPPIRPPFYPG-NH2 (C-terminus assumed) [F2R]”, the MIC was 16 µM. Turning to RFRPPIRRPSIRPPFYPG-NH2 [P10S], the MIC was determined as 64 µM.

The experiment is the same for the next values; noted with them: single-substitution library by SPOT‐synthesis (unpurified); MHB, ≈18 hours, 37 °C; median of n≥3.
In turn, “RFRPPIRRPPIRPPFYPG-NH2 [wt (SPOT form), reference compound]” had an MIC of 16 µM.
